# Source: PMC7031302, “Design and synthesis of new energy restriction mimetic agents: Potent anti-tumor activities of hybrid motifs of aminothiazoles and coumarins” (Scientific Reports, 2020)
# Like-named read-outs stand apart in the source and are kept apart here.
# What was measured:
# Format in all cases: cell-based, Human
# [1] = test system: HT-29; experiment: MTT cell viability, HT-29; settings: for IC50: read-out: half-maximal inhibitory concentration (IC50) HT-29
# Description: (§1) The potential cytotoxicity of 24 candidate compounds was initially evaluated at a single concentration level (5 μM). Then a full dose-response curve was plotted for each compound against different colorectal cancer cell lines (HCT116 and HT-29) by MTT assay after 72 h treatments. 4-hydroxycoumarin, OSU-CG5, and OSU-CG12 were used as positive controls. […] Compounds 9b, 9c, 9f, 9i, 11b, and 11c were selected for further studies to determine the full dose-response survival curves using different concentrations (0.1–20 µM) against CRC cell lines and normal fibroblast cell line (F180) at different time points (Fig. 2A–2F and supplementary material Page S63 and S64).
# (§2) Human colorectal carcinoma cell lines (HCT116) and (HT-29) were obtained from the European Collection of Cell Cultures (ECACC, UK). The cell lines were cultured in Roswell Park Memorial Institute medium (RPMI-1640, Sigma-Aldrich-St. Louis, MO, USA) supplemented with 10% fetal bovine serum (Sigma-Aldrich-St. Louis, MO, USA) and 1% penicillin/streptomycin (Sigma-Aldrich- Louis, MO, USA). F180 cell line (Human Normal Fibroblast), was kindly given by professor Ekkehard Dikomey (University Cancer Center, Hamburg University, Hamburg, Germany) and were cultured in Dulbecco’s Modified Eagle’s medium (DMEM, Sigma-Aldrich-St. Louis, MO, USA) supplemented with 10% fetal bovine serum (Sigma-Aldrich-St. Louis, MO, USA) and 1% penicillin/streptomycin (Sigma-Aldrich- Louis, MO, USA). All cell incubations were done at 37 °C in a humidified atmosphere of 5% CO2.
# (§3) Cell viability was assessed using, 3-(4,5-dimethylthiazol-2-yl)-2,5-diphenyltetrazolium bromide (MTT) assay as previously described. In summary, cancer cell lines or F180 were seeded in complete medium at the density of 3 × 10^3/well and 5 × 10^3/well respectively in 96 well flat-bottom plates. After 24 h, cells were incubated with the candidate compounds at the indicated concentration for (24, 48 or 72 h). DMSO was used as vehicle control and 4-Hydroxycoumarin was purchased from (Sigma-Aldrich, St. Louis, MO, USA) and Cisplatin from Hospira UK Ltd. At the end of treatment, the media were aspirated from each well and incubated with 200 µL of MTT tetrazolium dye (Sigma-Aldrich, St. Louis, MO, USA) at a final concentration of 0.5 mg/ml for 2 h at 37 °C. The reduced MTT crystals were solubilized in 200 µl/well of DMSO and the absorbance was measured at 570 nm using a microplate reader (Thermo-Scientific, Vantaa, Finland).
# [2] = test system: HCT116; experiment: MTT cell viability, HCT116; settings: for IC50: read-out: half-maximal inhibitory concentration (IC50) HCT116
# Description: as §1, §2, §3
# [3] = test system: colorectal cancer cell lines, HCT116 and HT-29; experiment: MTT cell viability, colorectal cancer cell lines (summary statements); settings: for anticancer activities in initial screening, in words: HT-29 and HCT116 cancer cell lines; for IC50: both cell lines, summary statement
# Description: as §1, §2, §3
# [4] = Homo sapiens, HT-29, 72 h, 72 h, MTT assay, mean ± SD (n = 6)
# [5] = Homo sapiens, HCT-116, 72 h, 72 h, MTT assay, mean ± SD (n = 6)
# [6] = 72 h, MTT assay, mean ± SD (n = 6)
Structure (SMILES),"IC50 [1, 4] [nM]","IC50 [2, 5] [µM]",other results
"Cc1cc(=O)oc2cc(Nc3nc(-c4cccc(F)c4)cs3)ccc12 [Compound 9g, 7-(4-(3-Fluorophenyl)thiazol-2-ylamino)-4-methyl-2H-chromen-2-one]",2910 ± 1250,3.5 ± 0.93,–
"COc1cccc(-c2csc(Nc3ccc4c(C)cc(=O)oc4c3)n2)c1 [Compound 9e, 7-(4-(3-Methoxyphenyl)thiazol-2-ylamino)-4-methyl-2H-chromen-2-one]",3000 ± 159,3.05 ± 0.14,–
"COc1ccccc1-c1csc(Nc2ccc3c(C)cc(=O)oc3c2)n1 [Compound 9i, 7-(4-(2-Methoxyphenyl)thiazol-2-ylamino)-4-methyl-2H-chromen-2-one]",320 ± 17,0.32 ± 0.041,"anticancer activities in initial screening, in words [3]: significant anticancer activities; IC50 [3]: < 600 nM"
"Cc1cc(=O)oc2cc(Nc3nc(-c4ccccc4)cs3)ccc12 [Compound 9a, 4-Methyl-7-(4-phenylthiazol-2-ylamino)-2H-chromen-2-one]",1540 ± 20,–,"anticancer activities in initial screening, in words [3]: significant anticancer activities"
"Cc1cc(=O)oc2cc(Nc3nc(-c4ccc(Cl)cc4)cs3)ccc12 [Compound 9c, 7-(4-(4-Chlorophenyl)thiazol-2-ylamino)-4-methyl-2H-chromen-2-one]",370 ± 77,0.31 ± 0.014,"anticancer activities in initial screening, in words [3]: significant anticancer activities; IC50 [3]: < 600 nM"
"CCc1cc(=O)oc2cc(Nc3nc(-c4cccc(F)c4)cs3)ccc12 [Compound 10g, 4-Ethyl-7-(4-(3-fluorophenyl)thiazol-2-ylamino)-2H-chromen-2-one]",2340 ± 615,4.08 ± 2.68,–
"CCc1cc(=O)oc2cc(Nc3nc(-c4ccc(Br)cc4)cs3)ccc12 [Compound 10b, 7-(4-(4-Bromophenyl)thiazol-2-ylamino)-4-ethyl-2H-chromen-2-one]",2970 ± 200,3.03 ± 2.25,–
"Cc1cc(=O)oc2cc(Nc3nc(-c4ccccc4[N+](=O)[O-])cs3)ccc12 [Compound 9h, 4-Methyl-7-(4-(2-nitrophenyl)thiazol-2-ylamino)-2H-chromen-2-one]",> 30000,> 30,–
"O=c1cc(O)c2ccccc2o1 [4-Hydroxycoumarin, reference compound]",–,–,"IC50 ([1]; Homo sapiens, HT-29, 72 h): > 200000 nM; IC50 ([2]; Homo sapiens, HCT-116, 72 h): > 200 µM"
"CCc1cc(=O)oc2cc(Nc3nc(-c4ccccc4)cs3)ccc12 [Compound 10a, 4-Ethyl-7-(4-phenylthiazol-2-ylamino)-2H-chromen-2-one]",> 30000,> 30,–
"CCOc1ccc(-c2csc(Nc3ccc4c(C)cc(=O)oc4c3)n2)cc1 [Compound 9d, 7-(4-(4-Ethoxyphenyl)thiazol-2-ylamino)-4-methyl-2H-chromen-2-one]",3030 ± 20.5,3.21 ± 0.88,–
"CCc1cc(=O)oc2cc(Nc3nc(-c4cccc(OC)c4)cs3)ccc12 [Compound 10e, 4-Ethyl-7-(4-(3-methoxyphenyl)thiazol-2-ylamino)-2H-chromen-2-one]",13100 ± 1390,> 30,–
"CCc1cc(=O)oc2cc(Nc3nc(-c4ccccc4[N+](=O)[O-])cs3)ccc12 [Compound 10h, 4-Ethyl-7-(4-(2-nitrophenyl)thiazol-2-ylamino)-2H-chromen-2-one]",1680 ± 470,4.73 ± 1.93,–
"CCc1cc(=O)oc2cc(Nc3nc(-c4ccc(Cl)cc4)cs3)ccc12 [Compound 10c, 7-(4-(4-Chlorophenyl)thiazol-2-ylamino)-4-ethyl-2H-chromen-2-one]",1300 ± 127,3.54 ± 0.53,–
"CCC(CC)CN1C(=O)S/C(=C\c2ccc(O)c(C(F)(F)F)c2)C1=O [OSU-CG5, reference compound]",–,–,"IC50 [1, 6]: 10100 ± 373 nM; IC50 [2, 6]: 2.85 ± 0.111 µM"
"CCc1cc(=O)oc2cc(Nc3nc(-c4cccc([N+](=O)[O-])c4)cs3)ccc12 [Compound 10f, 4-Ethyl-7-(4-(3-nitrophenyl)thiazol-2-ylamino)-2H-chromen-2-one]",4410 ± 1370,10.3 ± 3.15,–
"N.N.[Cl][Pt][Cl] [cisplatin, Cisplatin, reference compound]",–,–,"IC50 of cisplatin as a single compound, HT-29 ([1]; single compound, 72 h MTT): 1.81 µg/mL; IC50 of cisplatin as a single compound, HCT116 ([2]; single compound, 72 h MTT): 1.93 µg/mL"

# Continued, in another order:
"IC50 [1, 4] [nM]","IC50 [2, 5] [µM]",Structure (SMILES),other results
2130 ± 300,6.76 ± 0.28,"CCCc1cc(=O)oc2cc(Nc3nc(-c4ccccc4)cs3)ccc12 [Compound 11a, 7-(4-Phenylthiazol-2-ylamino)-4-propyl-2H-chromen-2-one]",–
3660 ± 38,> 30,"CCCc1cc(=O)oc2cc(Nc3nc(-c4cccc([N+](=O)[O-])c4)cs3)ccc12 [Compound 11f, 7-(4-(3-Nitrophenyl)thiazol-2-ylamino)-4-propyl-2H-chromen-2-one]",–
8890 ± 813,28.6 ± 6.56,"CCCc1cc(=O)oc2cc(Nc3nc(-c4cccc(OC)c4)cs3)ccc12 [Compound 11e, 7-(4-(3-Methoxyphenyl)thiazol-2-ylamino)-4-propyl-2H-chromen-2-one]",–
330 ± 32,0.34 ± 0.0009,"CCCc1cc(=O)oc2cc(Nc3nc(-c4ccc(Cl)cc4)cs3)ccc12 [Compound 11c, 7-(4-(4-Chlorophenyl)thiazol-2-ylamino)-4-propyl-2H-chromen-2-one]","anticancer activities in initial screening, in words [3]: significant anticancer activities; IC50 [3]: < 600 nM"
250 ± 4,0.26 ± 0.016,"CCCc1cc(=O)oc2cc(Nc3nc(-c4ccc(Br)cc4)cs3)ccc12 [Compound 11b, 7-(4-(4-Bromophenyl)thiazol-2-ylamino)-4-propyl-2H-chromen-2-one]","anticancer activities in initial screening, in words [3]: significant anticancer activities; IC50 [3]: < 600 nM"
1800 ± 760,4.08 ± 1.36,"CCCc1cc(=O)oc2cc(Nc3nc(-c4cccc(F)c4)cs3)ccc12 [Compound 11g, 7-(4-(3-Fluorophenyl)thiazol-2-ylamino)-4-propyl-2H-chromen-2-one]",–
3960 ± 14,6.3 ± 0.605,"CCCc1cc(=O)oc2cc(Nc3nc(-c4ccccc4[N+](=O)[O-])cs3)ccc12 [Compound 11h, 7-(4-(2-Nitrophenyl)thiazol-2-ylamino)-4-propyl-2H-chromen-2-one]",–
3960 ± 1650,13.5 ± 0.2,"CCc1cc(=O)oc2cc(Nc3nc(-c4ccccc4OC)cs3)ccc12 [Compound 10i, 4-Ethyl-7-(4-(2-methoxyphenyl)thiazol-2-ylamino)-2H-chromen-2-one]",–
